According to US10336707B2, “Heterocyclic derivatives modulating activity of certain protein kinases” (EUDENDRON S.R.L., priority 2014, dated 2019):

Assays:
DDR2 wild-type = biological target: T1, DDR2 wild-type (Homo sapiens, UniProt Q16832); experiment: Radiometric protein kinase assay (33PanQuinase Activity Assay), DDR2 wild-type; assay type: biochemical; settings: ATP 1.0 μM
T1 construct: either as full-length or enzymatically active fragments; purchased ProQinase GmbH (Freiburg, Germany)
T1 sequence (Q16832 22-855): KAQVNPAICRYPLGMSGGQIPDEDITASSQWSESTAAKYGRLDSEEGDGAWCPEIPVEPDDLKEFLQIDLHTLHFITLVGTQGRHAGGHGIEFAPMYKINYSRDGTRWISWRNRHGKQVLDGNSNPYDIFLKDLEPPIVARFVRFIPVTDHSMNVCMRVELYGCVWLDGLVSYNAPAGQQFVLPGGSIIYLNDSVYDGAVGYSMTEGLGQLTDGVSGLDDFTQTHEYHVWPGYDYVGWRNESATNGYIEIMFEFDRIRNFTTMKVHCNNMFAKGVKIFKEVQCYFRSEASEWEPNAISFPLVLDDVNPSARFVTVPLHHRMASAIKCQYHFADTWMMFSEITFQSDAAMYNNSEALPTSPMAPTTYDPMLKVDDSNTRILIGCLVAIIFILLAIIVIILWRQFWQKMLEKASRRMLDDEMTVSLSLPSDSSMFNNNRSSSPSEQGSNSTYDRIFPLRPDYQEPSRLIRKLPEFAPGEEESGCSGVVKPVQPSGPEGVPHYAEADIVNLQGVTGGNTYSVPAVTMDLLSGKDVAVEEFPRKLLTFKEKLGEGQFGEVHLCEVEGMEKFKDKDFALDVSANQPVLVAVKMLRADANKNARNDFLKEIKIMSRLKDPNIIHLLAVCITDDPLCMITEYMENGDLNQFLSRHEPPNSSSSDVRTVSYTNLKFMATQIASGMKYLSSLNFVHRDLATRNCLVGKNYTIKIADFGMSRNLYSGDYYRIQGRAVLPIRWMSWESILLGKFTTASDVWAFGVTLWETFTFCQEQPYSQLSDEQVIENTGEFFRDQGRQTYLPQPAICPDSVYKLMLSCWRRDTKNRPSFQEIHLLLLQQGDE
Experimental: A proprietary radiometric protein kinase assay (33PanQuinase® Activity Assay) developed by ProQuinase GmbH (Freiburg, Germany) was used for measuring the kinase activity of selected protein kinases. All assays were performed in FlashPlates™ wells 96 Perkin Elmer (Boston, Mass., USA) in a reaction volume of 50 μl. The reaction mixture was obtained in 4 steps in the following order: • 1. 10 μl of a solution of non-radioactive ATP in water; • 2. 25 μl of assay buffer/[γ-^33P]-ATP mixture • 3. 5 μl of test sample in 10% DMSO • 4. 10 μl of enzyme/substrate mixture
All protein kinases provided by ProQinase were expressed in Sf9 insect cells or in E. coli as recombinant GST-fusion proteins or His-tagged proteins, either as full-length or enzymatically active fragments. […] Kinases from external vendors (CAR=Carna Biosciences Inc.; INV=Life Technologies (Invitrogen Corporation); MIL=Merck-Millipore (Millipore Corporation), were expressed, purified and quality-controlled by virtue of the vendors readings.
A stock solution of compound of formula (I) was diluted to 5×10-04M/100% DMSO. […] Incorporation of 33Pi (counting of “cpm”) was determined with a microplate scintillation counter (Microbeta, Wallac). […]
Based on each 10 corresponding residual activities, IC50 values were calculated using Prism 5.04 for Windows (Graphpad, San Diego, Calif.). […]

[1] = tested on: Karpas 299 lymphoma cell line positive for the oncogenic fusion protein NPM-ALK; experiment: Tritiated thymidine uptake cell proliferation assay, Karpas 299; assay type: cell-based; settings: Homo sapiens
Experimental: Method: Tritiated Thymidine Uptake Cell Proliferation Assay
The following procedure was used with parent untransformed BaF3 cells, BaF3 cells transformed with the oncogenic fusion protein NPM/ALK, NPM/ALK positive SUDHL-1 cells, NPM/ALK positive SUPM2, ALK-negative HL60 cells, NPM/ALK positive KARPAS-299 cells. The parent untransformed BaF3 cells or Alk-negative HL60 cells are used as controls. Cells were seeded in U-bottomed 96-well plates at 10000 cells/well in a volume of 100 μl in supplemented medium. In the case of the parent untransformed BaF3 cells, the medium was supplemented with IL-3. Serial dilutions of inhibitors were added to the appropriate wells and volumes adjusted to 200 μl. Controls were treated with the equivalent volume of vehicle, DMSO, alone. Plates were incubated at 37° C. for 72 h. 3[H]-thymidine (1 μCi/well) was added for the last 16 h of incubation. Cells were harvested on to paper filters and 3[H]-thymidine incorporation was measured using a scintillation counter (1430 MicroBeta, Wallac, Turku, Finland). The 50% inhibitory concentration (IC50) was defined as the concentration of inhibitor, expressed in nanomolar units, that gave a 50% decrease in 3[H]-thymidine uptake compared with controls.
In Table 1 are listed results for selected examples of compounds of the invention, reported as percentage of inhibition of cell proliferation at 200 nM, obtained from cellular assays in Karpas 299 lymphoma cell line positive for the oncogenic fusion protein NPM-ALK.

CN1CCN(c2ccc(C(=O)Nc3n[nH]c4cc(-c5ccc(O)cc5)c(Cc5cc(F)cc(F)c5)cc34)c(NC3CCOCC3)c2)CC1 [Example 3, N-[5-[(3,5-difluorophenyl)methyl]-6-(4-hydroxyphenyl)-1H-indazol-3-yl]-4-(4-methylpiperazin-1-yl)-2-(tetrahydropyran-4-ylamino)benzamide]
IC50 (DDR2 wild-type): 150 nM | inhibition at 0.2 µM ([1]; KARPAS-299, read-out: % Inhibition Karpas 299 cells): 93% | IC50 ([1]; KARPAS-299, read-out: IC50 of cellular proliferation, Karpas299): 23 nM
